Patent US10040781B2, “Tank-binding kinase inhibitor compounds” (Gilead Sciences, Inc., priority 2014, dated 2018)

Columns and labels:
hJAK2 = hJAK2 (Homo sapiens (Human), UniProt O60674); assay: hJAK2 LANCE TR-FRET enzymatic assay; assay type: biochemical; settings: read-out: JAK2 IC50
IKKε = IKKε (Homo sapiens (Human), UniProt Q14164); assay: IKKε TR-FRET enzymatic assay; assay type: biochemical; settings: read-out: IKKe IC50
TBK1 = TBK1 (Homo sapiens (Human), UniProt Q9UHD2); assay: TBK1 TR-FRET enzymatic assay;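 note: phosphorylation of a biotinylated Ser/Thr peptide by purified full-length recombinant TBK1, read by TR-FRET after 240 min at 25 °C, IC50 is the geometric mean of at least four runs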
Chain of TBK1 (Q9UHD2 whole entry): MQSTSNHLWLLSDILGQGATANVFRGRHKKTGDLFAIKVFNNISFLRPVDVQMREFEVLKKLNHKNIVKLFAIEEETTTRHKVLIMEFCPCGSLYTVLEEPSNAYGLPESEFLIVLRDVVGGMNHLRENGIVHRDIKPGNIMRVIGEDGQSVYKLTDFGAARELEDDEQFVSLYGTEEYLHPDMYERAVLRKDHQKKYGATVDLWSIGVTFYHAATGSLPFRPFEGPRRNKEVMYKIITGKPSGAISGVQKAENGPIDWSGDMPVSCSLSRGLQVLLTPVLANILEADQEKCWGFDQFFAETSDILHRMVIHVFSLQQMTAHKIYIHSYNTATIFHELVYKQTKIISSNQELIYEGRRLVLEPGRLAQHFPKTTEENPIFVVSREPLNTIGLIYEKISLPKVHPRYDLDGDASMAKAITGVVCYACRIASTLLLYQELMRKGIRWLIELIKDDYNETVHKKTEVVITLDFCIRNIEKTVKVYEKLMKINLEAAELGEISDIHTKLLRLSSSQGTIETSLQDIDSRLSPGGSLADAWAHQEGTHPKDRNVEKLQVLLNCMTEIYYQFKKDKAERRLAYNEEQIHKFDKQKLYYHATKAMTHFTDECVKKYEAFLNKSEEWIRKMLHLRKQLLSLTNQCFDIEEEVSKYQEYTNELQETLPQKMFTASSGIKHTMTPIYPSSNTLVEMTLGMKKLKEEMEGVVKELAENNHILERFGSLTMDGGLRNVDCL

Chain of hJAK2 (O60674 whole entry): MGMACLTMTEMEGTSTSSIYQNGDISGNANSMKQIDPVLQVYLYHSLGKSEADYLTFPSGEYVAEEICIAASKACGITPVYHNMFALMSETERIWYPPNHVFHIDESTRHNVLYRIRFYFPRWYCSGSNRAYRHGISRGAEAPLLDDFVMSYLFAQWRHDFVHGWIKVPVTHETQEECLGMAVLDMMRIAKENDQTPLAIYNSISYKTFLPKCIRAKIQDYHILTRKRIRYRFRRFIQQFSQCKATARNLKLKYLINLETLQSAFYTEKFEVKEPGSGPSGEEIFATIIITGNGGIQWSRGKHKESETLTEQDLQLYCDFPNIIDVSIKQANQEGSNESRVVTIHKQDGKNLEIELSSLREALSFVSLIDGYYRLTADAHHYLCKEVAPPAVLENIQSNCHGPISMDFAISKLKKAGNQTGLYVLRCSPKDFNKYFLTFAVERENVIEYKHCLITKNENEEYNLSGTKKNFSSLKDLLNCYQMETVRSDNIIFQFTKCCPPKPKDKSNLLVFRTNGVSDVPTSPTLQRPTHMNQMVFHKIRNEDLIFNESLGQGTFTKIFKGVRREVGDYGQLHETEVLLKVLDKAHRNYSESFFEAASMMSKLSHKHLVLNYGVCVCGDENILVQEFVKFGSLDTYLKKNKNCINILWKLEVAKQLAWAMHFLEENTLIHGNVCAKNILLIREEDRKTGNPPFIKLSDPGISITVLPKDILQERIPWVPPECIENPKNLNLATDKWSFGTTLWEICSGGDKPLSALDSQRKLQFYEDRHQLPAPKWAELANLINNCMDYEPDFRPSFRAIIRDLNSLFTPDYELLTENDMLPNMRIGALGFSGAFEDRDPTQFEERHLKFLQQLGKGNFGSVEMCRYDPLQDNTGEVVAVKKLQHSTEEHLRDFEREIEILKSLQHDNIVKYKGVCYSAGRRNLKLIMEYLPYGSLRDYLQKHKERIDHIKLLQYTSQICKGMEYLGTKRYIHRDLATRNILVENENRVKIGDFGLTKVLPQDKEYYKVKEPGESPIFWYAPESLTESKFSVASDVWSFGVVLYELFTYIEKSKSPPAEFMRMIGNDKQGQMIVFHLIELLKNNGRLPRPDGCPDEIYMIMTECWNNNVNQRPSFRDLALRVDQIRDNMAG
Chain of IKKε (Q14164 whole entry): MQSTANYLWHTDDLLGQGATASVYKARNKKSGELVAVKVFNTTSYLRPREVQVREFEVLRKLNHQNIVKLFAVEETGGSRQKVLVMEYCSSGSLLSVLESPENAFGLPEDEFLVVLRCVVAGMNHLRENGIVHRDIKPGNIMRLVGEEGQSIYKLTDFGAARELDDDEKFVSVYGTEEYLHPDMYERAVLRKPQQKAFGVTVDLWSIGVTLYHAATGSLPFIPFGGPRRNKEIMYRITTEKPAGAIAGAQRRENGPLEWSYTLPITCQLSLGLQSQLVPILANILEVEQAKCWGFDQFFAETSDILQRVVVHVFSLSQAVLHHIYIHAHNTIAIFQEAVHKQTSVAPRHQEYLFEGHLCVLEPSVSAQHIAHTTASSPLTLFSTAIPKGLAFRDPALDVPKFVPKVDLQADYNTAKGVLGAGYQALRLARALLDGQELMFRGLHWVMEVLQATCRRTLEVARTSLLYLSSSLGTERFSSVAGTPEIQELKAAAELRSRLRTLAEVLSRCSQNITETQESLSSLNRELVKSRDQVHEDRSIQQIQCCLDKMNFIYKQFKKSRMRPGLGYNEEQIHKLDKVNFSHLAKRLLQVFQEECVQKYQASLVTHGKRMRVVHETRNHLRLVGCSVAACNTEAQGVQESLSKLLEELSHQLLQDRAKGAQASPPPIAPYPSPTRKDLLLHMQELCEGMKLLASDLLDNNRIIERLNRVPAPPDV

Structure (SMILES) | IC50 (hJAK2) [nM] | IC50 (IKKε) [nM] | IC50 (TBK1) [nM]
N#Cc1cc(-c2ncnc(Nc3ccc(N4CCN(C5COC5)CC4)cc3)n2)cc(F)c1O[C@H]1CCN(C(=O)CO)C[C@H]1F [Example 329, 3-fluoro-2-(((3R,4S)-3-fluoro-1-(2-hydroxyacetyl)piperidin-4-yl)oxy)-5-(4-((4-(4-(oxetan-3-yl)piperazin-1-yl)phenyl)amino)-1,3,5-triazin-2-yl)benzonitrile] | 648 | 3 | 4
N#Cc1cc(-c2ncnc(Nc3ccc(N4CCN(C5COC5)CC4)cc3)n2)ccc1O[C@H]1CCN(C(=O)[C@@H]2COC(=O)N2)C[C@H]1F [Example 333, 2-(((3R,4S)-3-fluoro-1-((S)-2-oxooxazolidine-4-carbonyl)piperidin-4-yl)oxy)-5-(4-((4-(4-(oxetan-3-yl)piperazin-1-yl)phenyl)amino)-1,3,5-triazin-2-yl)benzonitrile] | 233 | 3 | 2
N#Cc1cc(-c2ncnc(Nc3ccc(N4CCN(C5COC5)CC4)cc3)n2)ccc1O[C@H]1CCN(C(=O)c2nc(N)n[nH]2)C[C@H]1F [Example 334, 2-(((3R,4S)-1-(3-amino-1H-1,2,4-triazole-5-carbonyl)-3-fluoropiperidin-4-yl)oxy)-5-(4-((4-(4-(oxetan-3-yl)piperazin-1-yl)phenyl)amino)-1,3,5-triazin-2-yl)benzonitrile] | 80 | 2 | 16
N#Cc1cc(-c2ncnc(Nc3ccc(N4CCN(C5COC5)CC4)cc3)n2)ccc1O[C@H]1CCN(C(=O)c2ccncn2)C[C@H]1F [Example 337, 2-(((3R,4S)-3-fluoro-1-(pyrimidine-4-carbonyl)piperidin-4-yl)oxy)-5-(4-((4-(4-(oxetan-3-yl)piperazin-1-yl)phenyl)amino)-1,3,5-triazin-2-yl)benzonitrile] | 572 | 7 | 4
N#Cc1cc(-c2ncnc(Nc3ccc(N4CCN(C5COC5)CC4)cc3)n2)ccc1O[C@H]1CCN(C(=O)c2ccnnc2)C[C@H]1F [Example 338, 2-(((3R,4S)-3-fluoro-1-(pyridazine-4-carbonyl)piperidin-4-yl)oxy)-5-(4-((4-(4-(oxetan-3-yl)piperazin-1-yl)phenyl)amino)-1,3,5-triazin-2-yl)benzonitrile] | 131 | 18 | 9
N#Cc1cc(-c2ncnc(Nc3ccc(N4CCN(C5COC5)CC4)cc3)n2)ccc1O[C@H]1CCN(C(=O)c2nccnc2N)C[C@H]1F [Example 339, 2-(((3R,4S)-1-(3-aminopyrazine-2-carbonyl)-3-fluoropiperidin-4-yl)oxy)-5-(4-((4-(4-(oxetan-3-yl)piperazin-1-yl)phenyl)amino)-1,3,5-triazin-2-yl)benzonitrile] | 54 | 58 | 14
C[C@H](O)C(=O)N1CC[C@H](Oc2ccc(-c3ncnc(Nc4ccc(N5CC(C)(O)C5)cc4)n3)cc2C#N)[C@H](F)C1 [Example 342, 2-(((3R,4S)-3-fluoro-1-((S)-2-hydroxypropanoyl)piperidin-4-yl)oxy)-5-(4-((4-(3-hydroxy-3-methylazetidin-1-yl)phenyl)amino)-1,3,5-triazin-2-yl)benzonitrile] | 496 | 1 | 2
Cn1ncc2ccc(Nc3ncnc(-c4ccc(O[C@H]5CCN(C(=O)CO)C[C@H]5F)c(C#N)c4)n3)cc21 [Example 343, 2-(((3R,4S)-3-fluoro-1-(2-hydroxyacetyl)piperidin-4-yl)oxy)-5-(4-((1-methyl-1H-indazol-6-yl)amino)-1,3,5-triazin-2-yl)benzonitrile] | 258 | 2 | 4
C[C@H](O)C(=O)N1CC[C@H](Oc2ccc(-c3ncnc(Nc4ccc5cnn(C)c5c4)n3)cc2C#N)[C@H](F)C1 [Example 344, 2-(((3R,4S)-3-fluoro-1-((S)-2-hydroxypropanoyl)piperidin-4-yl)oxy)-5-(4-((1-methyl-1H-indazol-6-yl)amino)-1,3,5-triazin-2-yl)benzonitrile] | 707 | 5 | 7
Cc1nn(C)c2cc(Nc3ncnc(-c4ccc(O[C@H]5CCN(C(=O)CO)C[C@H]5F)c(C#N)c4)n3)ccc12 [Example 346, 5-(4-((1,3-dimethyl-1H-indazol-6-yl)amino)-1,3,5-triazin-2-yl)-2-(((3R,4S)-3-fluoro-1-(2-hydroxyacetyl)piperidin-4-yl)oxy)benzonitrile] | 511 | 1 | 3
Cc1nn(C)c2cc(Nc3ncnc(-c4ccc(O[C@H]5CCN(C(=O)[C@H](C)O)C[C@H]5F)c(C#N)c4)n3)ccc12 [Example 347, 5-(4-((1,3-dimethyl-1H-indazol-6-yl)amino)-1,3,5-triazin-2-yl)-2-(((3R,4S)-3-fluoro-1-((S)-2-hydroxypropanoyl)piperidin-4-yl)oxy)benzonitrile] | ≥ 1000 | 5 | 4
CC(C)n1cc(Nc2ncnc(-c3ccc(O[C@H]4CCN(C(=O)CO)C[C@H]4F)c(C#N)c3)n2)cn1 [Example 349, 2-(((3R,4S)-3-fluoro-1-(2-hydroxyacetyl)piperidin-4-yl)oxy)-5-(4-((1-isopropyl-1H-pyrazol-4-yl)amino)-1,3,5-triazin-2-yl)benzonitrile] | 98 | 2 | 2

Second part, the molecule after the results:

IC50 (hJAK2) [nM] | IC50 (IKKε) [nM] | IC50 (TBK1) [nM] | Structure (SMILES)
62 | 2 | 4 | COc1cc(Nc2ncnc(-c3ccc(O[C@H]4CCN(C(=O)CC#N)C[C@H]4F)c(C#N)c3)n2)ccc1N1CCC(N2CCOCC2)CC1 [Example 327, 2-(((3R,4S)-1-(2-cyanoacetyl)-3-fluoropiperidin-4-yl)oxy)-5-(4-((3-methoxy-4-(4-morpholinopiperidin-1-yl)phenyl)amino)-1,3,5-triazin-2-yl)benzonitrile]
≥ 1000 | 4 | 4 | C[C@H](O)C(=O)N1CC[C@H](Oc2c(F)cc(-c3ncnc(Nc4ccc(N5CCN(C6COC6)CC5)cc4)n3)cc2C#N)[C@H](F)C1 [Example 328, 3-fluoro-2-(((3R,4S)-3-fluoro-1-((S)-2-hydroxypropanoyl)piperidin-4-yl)oxy)-5-(4-((4-(4-(oxetan-3-yl)piperazin-1-yl)phenyl)amino)-1,3,5-triazin-2-yl)benzonitrile]
941 | 6 | 4 | N#CCC(=O)N1CC[C@H](Oc2c(F)cc(-c3ncnc(Nc4ccc(N5CCN(C6COC6)CC5)cc4)n3)cc2C#N)[C@H](F)C1 [Example 330, 2-(((3R,4S)-1-(2-cyanoacetyl)-3-fluoropiperidin-4-yl)oxy)-3-fluoro-5-(4-((4-(4-(oxetan-3-yl)piperazin-1-yl)phenyl)amino)-1,3,5-triazin-2-yl)benzonitrile]
943 | 14 | 7 | N#Cc1cc(-c2ncnc(Nc3ccc(N4CCN(C5COC5)CC4)cc3)n2)cc(F)c1O[C@H]1CCN(C(=O)CCO)C[C@H]1F [Example 331, 3-fluoro-2-(((3R,4S)-3-fluoro-1-(3-hydroxypropanoyl)piperidin-4-yl)oxy)-5-(4-((4-(4-(oxetan-3-yl)piperazin-1-yl)phenyl)amino)-1,3,5-triazin-2-yl)benzonitrile]
943 | 5 | 10 | N#Cc1cc(-c2ncnc(Nc3ccc(OCCN4CCCC4)cc3)n2)ccc1OC1CCOCC1 [Example 332, 5-(4-((4-(2-(pyrrolidin-1-yl)ethoxy)phenyl)amino)-1,3,5-triazin-2-yl)-2-((tetrahydro-2H-pyran-4-yl)oxy)benzonitrile]
478 | 834 | 508 | CC(=O)N[C@@H](C)C(=O)N1CC[C@H](Oc2ccc(-c3ncnc(Nc4ccc(N5CCN(C6COC6)CC5)cc4)n3)cc2C#N)[C@H](F)C1 [Example 335, N—((S)-1-((3R,4S)-4-(2-cyano-4-(4-((4-(4-(oxetan-3-yl)piperazin-1-yl)phenyl)amino)-1,3,5-triazin-2-yl)phenoxy)-3-fluoropiperidin-1-yl)-1-oxopropan-2-yl)acetamide]
122 | 9 | 4 | N#Cc1cc(-c2ncnc(Nc3ccc(N4CCN(C5COC5)CC4)cc3)n2)ccc1O[C@H]1CCN(C(=O)c2cncc(N)n2)C[C@H]1F [Example 340, 2-(((3R,4S)-1-(6-aminopyrazine-2-carbonyl)-3-fluoropiperidin-4-yl)oxy)-5-(4-((4-(4-(oxetan-3-yl)piperazin-1-yl)phenyl)amino)-1,3,5-triazin-2-yl)benzonitrile]
162 | 3 | 4 | N#Cc1cc(-c2ncnc(Nc3ccc(N4CCN(C5COC5)CC4)cc3)n2)ccc1O[C@H]1CCN(C(=O)C(O)CO)C[C@H]1F (stereo partly drawn) [Example 348, 2-(((3R,4S)-1-(2,3-dihydroxypropanoyl)-3-fluoropiperidin-4-yl)oxy)-5-(4-((4-(4-(oxetan-3-yl)piperazin-1-yl)phenyl)amino)-1,3,5-triazin-2-yl)benzonitrile]
231 | 5 | 3 | CC(C)n1cc(Nc2ncnc(-c3ccc(O[C@H]4CCN(C(=O)[C@H](C)O)C[C@H]4F)c(C#N)c3)n2)cn1 [Example 350, 2-(((3R,4S)-3-fluoro-1-((S)-2-hydroxypropanoyl)piperidin-4-yl)oxy)-5-(4-((1-isopropyl-1H-pyrazol-4-yl)amino)-1,3,5-triazin-2-yl)benzonitrile]
662 | 9 | 6 | CCn1cc(Nc2ncnc(-c3ccc(O[C@H]4CCN(C(=O)[C@H](C)O)C[C@H]4F)c(C#N)c3)n2)cn1 [Example 351, 5-(4-((1-ethyl-1H-pyrazol-4-yl)amino)-1,3,5-triazin-2-yl)-2-(((3R,4S)-3-fluoro-1-((S)-2-hydroxypropanoyl)piperidin-4-yl)oxy)benzonitrile]
